{
  "source": "PubChem BioAssay AID1259407",
  "about": "(Chemical Carcinogenesis Research Information System (CCRIS), 2018)",
  "tested_on": "CCRIS mutagenicity, Ames/micronucleus/aberration tests",
  "experiment": "CCRIS mutagenicity studies",
  "key": {"[1]": {"conditions": "Test System: AMES SALMONELLA TYPHIMURIUM, Strain/Indicator: TA98, Metabolic Activation: NONE, Method: STANDARD PLATE"}, "[2]": {"conditions": "Test System: AMES SALMONELLA TYPHIMURIUM, Strain/Indicator: TA98, Metabolic Activation: RAT, LIVER, S-9, AROCLOR 1254, Method: STANDARD PLATE"}, "[3]": {"conditions": "Test System: AMES SALMONELLA TYPHIMURIUM, Strain/Indicator: TA100, Metabolic Activation: NONE, Method: STANDARD PLATE"}, "[4]": {"conditions": "Test System: AMES SALMONELLA TYPHIMURIUM, Strain/Indicator: TA100, Metabolic Activation: RAT, LIVER, S-9, AROCLOR 1254, Method: STANDARD PLATE"}, "[5]": {"conditions": "Test System: AMES SALMONELLA TYPHIMURIUM, Strain/Indicator: TA1537, Metabolic Activation: NONE, Method: STANDARD PLATE"}, "[6]": {"conditions": "Test System: AMES SALMONELLA TYPHIMURIUM, Strain/Indicator: TA1537, Metabolic Activation: RAT, LIVER, S-9, AROCLOR 1254, Method: STANDARD PLATE"}},
  "note": "Calls of active or inactive are those of the source. No rule for the calls is given here.",
  "data": [
    {"smiles": "BrC(Br)Br", "values": [
      {"measurement": "mutagenic call", "setting": "End Point: IN VITRO CHROMOSOMAL ABERRATIONS, Test System: CHO CELLS, Metabolic Activation: NONE", "value": "inactive; negative"},
      {"measurement": "mutagenic call", "setting": "End Point: IN VITRO CHROMOSOMAL ABERRATIONS, Test System: CHO CELLS, Metabolic Activation: RAT, LIVER, S-9, AROCLOR 1254", "value": "inactive; negative"},
      {"measurement": "mutagenic call", "setting": "End Point: IN VIVO MICRONUCLEUS, Test System: BONE MARROW POLYCHROMATIC ERYTHROCYTES, Species: MOUSE, Strain/Sex: DDY/MALE, Route: IP", "value": "inactive; negative"},
      {"measurement": "mutagenic call", "setting": "Test System: AMES SALMONELLA TYPHIMURIUM, Strain/Indicator: RSJ100, Metabolic Activation: NONE, Method: PREINCUBATION", "value": "active; positive"},
      {"measurement": "mutagenic call", "setting": "Test System: AMES SALMONELLA TYPHIMURIUM, Strain/Indicator: RSJ100, Metabolic Activation: NONE, Method: STANDARD PLATE", "value": "active; positive"},
      {"measurement": "mutagenic call", "setting": "Test System: AMES SALMONELLA TYPHIMURIUM, Strain/Indicator: RSJ100, Metabolic Activation: RAT LIVER S-9, Method: PREINCUBATION", "value": "inactive; negative"},
      {"measurement": "mutagenic call", "setting": "Test System: AMES SALMONELLA TYPHIMURIUM, Strain/Indicator: TA97, Metabolic Activation: HAMSTER, LIVER, S-9 (10% OR 30%), AROCLOR 1254, Method: PREINCUBATION", "value": "inactive; negative"},
      {"measurement": "mutagenic call", "setting": "Test System: AMES SALMONELLA TYPHIMURIUM, Strain/Indicator: TA97, Metabolic Activation: NONE, Method: PREINCUBATION", "value": "inactive; negative"},
      {"measurement": "mutagenic call", "setting": "Test System: AMES SALMONELLA TYPHIMURIUM, Strain/Indicator: TA97, Metabolic Activation: RAT, LIVER, S-9 (10% OR 30%), AROCLOR 1254, Method: PREINCUBATION", "value": "inactive; negative"},
      {"measurement": "mutagenic call", "setting": "Test System: AMES SALMONELLA TYPHIMURIUM, Strain/Indicator: TA98, Metabolic Activation: HAMSTER, LIVER, S-9 (5% OR 10%), AROCLOR 1254, Method: PREINCUBATION", "value": "inactive; negative"},
      {"measurement": "mutagenic call", "setting": "Test System: AMES SALMONELLA TYPHIMURIUM, Strain/Indicator: TA98, Metabolic Activation: HAMSTER, LIVER, S-9, AROCLOR 1254, Method: PREINCUBATION", "value": "inactive; negative"},
      {"measurement": "mutagenic call", "setting": "[1]", "value": "inactive; negative"},
      {"measurement": "mutagenic call", "setting": "Test System: AMES SALMONELLA TYPHIMURIUM, Strain/Indicator: TA98, Metabolic Activation: RAT LIVER S-9, Method: PREINCUBATION", "value": "active; positive"},
      {"measurement": "mutagenic call", "setting": "Test System: AMES SALMONELLA TYPHIMURIUM, Strain/Indicator: TA98, Metabolic Activation: RAT, LIVER, S-9 (10% OR 30%), AROCLOR 1254, Method: PREINCUBATION", "value": "inactive; negative"},
      {"measurement": "mutagenic call", "setting": "Test System: AMES SALMONELLA TYPHIMURIUM, Strain/Indicator: TA98, Metabolic Activation: RAT, LIVER, S-9, AROCLOR 1254, Method: PREINCUBATION", "value": "inactive; negative"},
      {"measurement": "mutagenic call", "setting": "[2]", "value": "inactive; negative"},
      {"measurement": "mutagenic call", "setting": "Test System: AMES SALMONELLA TYPHIMURIUM, Strain/Indicator: TA100, Metabolic Activation: HAMSTER, LIVER, S-9 (10% OR 30%), AROCLOR 1254, Method: PREINCUBATION", "value": "inactive; negative"},
      {"measurement": "mutagenic call", "setting": "Test System: AMES SALMONELLA TYPHIMURIUM, Strain/Indicator: TA100, Metabolic Activation: HAMSTER, LIVER, S-9, AROCLOR 1254, Method: PREINCUBATION", "value": "inactive; negative"},
      {"measurement": "mutagenic call", "setting": "Test System: AMES SALMONELLA TYPHIMURIUM, Strain/Indicator: TA100, Metabolic Activation: NONE, Method: DESICCATOR", "value": "active; positive"},
      {"measurement": "mutagenic call", "setting": "Test System: AMES SALMONELLA TYPHIMURIUM, Strain/Indicator: TA100, Metabolic Activation: NONE, Method: FLUCTUATION TEST", "value": "active; positive"},
      {"measurement": "mutagenic call", "setting": "[3]", "value": "inactive; negative"},
      {"measurement": "mutagenic call", "setting": "Test System: AMES SALMONELLA TYPHIMURIUM, Strain/Indicator: TA100, Metabolic Activation: RAT LIVER S-9, Method: PREINCUBATION", "value": "inactive; negative"},
      {"measurement": "mutagenic call", "setting": "Test System: AMES SALMONELLA TYPHIMURIUM, Strain/Indicator: TA100, Metabolic Activation: RAT, LIVER, S-9 (10% OR 30%), AROCLOR 1254, Method: PREINCUBATION", "value": "inactive; negative"},
      {"measurement": "mutagenic call", "setting": "Test System: AMES SALMONELLA TYPHIMURIUM, Strain/Indicator: TA100, Metabolic Activation: RAT, LIVER, S-9, AROCLOR 1254, Method: FLUCTUATION TEST", "value": "inactive; negative"},
      {"measurement": "mutagenic call", "setting": "Test System: AMES SALMONELLA TYPHIMURIUM, Strain/Indicator: TA100, Metabolic Activation: RAT, LIVER, S-9, AROCLOR 1254, Method: PREINCUBATION", "value": "inactive; negative"},
      {"measurement": "mutagenic call", "setting": "[4]", "value": "inactive; negative"},
      {"measurement": "mutagenic call", "setting": "Test System: AMES SALMONELLA TYPHIMURIUM, Strain/Indicator: TA1535, Metabolic Activation: HAMSTER, LIVER, S-9 (10% OR 30%), AROCLOR 1254, Method: PREINCUBATION", "value": "inactive; negative"},
      {"measurement": "mutagenic call", "setting": "Test System: AMES SALMONELLA TYPHIMURIUM, Strain/Indicator: TA1535, Metabolic Activation: HAMSTER, LIVER, S-9, AROCLOR 1254, Method: PREINCUBATION", "value": "inactive; negative"},
      {"measurement": "mutagenic call", "setting": "Test System: AMES SALMONELLA TYPHIMURIUM, Strain/Indicator: TA1535, Metabolic Activation: NONE, Method: DESICCATOR", "value": "active; positive"},
      {"measurement": "mutagenic call", "setting": "Test System: AMES SALMONELLA TYPHIMURIUM, Strain/Indicator: TA1535, Metabolic Activation: NONE, Method: PREINCUBATION", "value": "inactive; negative"},
      {"measurement": "mutagenic call", "setting": "Test System: AMES SALMONELLA TYPHIMURIUM, Strain/Indicator: TA1535, Metabolic Activation: NONE, Method: STANDARD PLATE", "value": "inactive; negative"},
      {"measurement": "mutagenic call", "setting": "Test System: AMES SALMONELLA TYPHIMURIUM, Strain/Indicator: TA1535, Metabolic Activation: RAT, LIVER, S-9 (10% OR 30%), AROCLOR 1254, Method: PREINCUBATION", "value": "inactive; negative"},
      {"measurement": "mutagenic call", "setting": "Test System: AMES SALMONELLA TYPHIMURIUM, Strain/Indicator: TA1535, Metabolic Activation: RAT, LIVER, S-9, AROCLOR 1254, Method: PREINCUBATION", "value": "inactive; negative"},
      {"measurement": "mutagenic call", "setting": "Test System: AMES SALMONELLA TYPHIMURIUM, Strain/Indicator: TA1535, Metabolic Activation: RAT, LIVER, S-9, AROCLOR 1254, Method: STANDARD PLATE", "value": "inactive; negative"},
      {"measurement": "mutagenic call", "setting": "Test System: AMES SALMONELLA TYPHIMURIUM, Strain/Indicator: TA1537, Metabolic Activation: HAMSTER, LIVER, S-9 (10% OR 30%), AROCLOR 1254, Method: PREINCUBATION", "value": "inactive; negative"},
      {"measurement": "mutagenic call", "setting": "Test System: AMES SALMONELLA TYPHIMURIUM, Strain/Indicator: TA1537, Metabolic Activation: HAMSTER, LIVER, S-9, AROCLOR 1254, Method: PREINCUBATION", "value": "inactive; negative"},
      {"measurement": "mutagenic call", "setting": "Test System: AMES SALMONELLA TYPHIMURIUM, Strain/Indicator: TA1537, Metabolic Activation: NONE, Method: PREINCUBATION", "value": "inactive; negative"},
      {"measurement": "mutagenic call", "setting": "[5]", "value": "inactive; negative"},
      {"measurement": "mutagenic call", "setting": "Test System: AMES SALMONELLA TYPHIMURIUM, Strain/Indicator: TA1537, Metabolic Activation: RAT, LIVER, S-9 (10% OR 30%), AROCLOR 1254, Method: PREINCUBATION", "value": "inactive; negative"},
      {"measurement": "mutagenic call", "setting": "Test System: AMES SALMONELLA TYPHIMURIUM, Strain/Indicator: TA1537, Metabolic Activation: RAT, LIVER, S-9, AROCLOR 1254, Method: PREINCUBATION", "value": "inactive; negative"},
      {"measurement": "mutagenic call", "setting": "[6]", "value": "inactive; negative"},
      {"measurement": "mutagenic call", "setting": "Test System: MOUSE LYMPHOMA, Strain/Indicator: L5178Y (TK+/TK-), Metabolic Activation: NONE, Method: SUSPENSION/PLATE", "value": "active; positive"},
      {"measurement": "mutagenic call", "setting": "Test System: MOUSE LYMPHOMA, Strain/Indicator: L5178Y (TK+/TK-), Metabolic Activation: RAT, LIVER, S-9, AROCLOR 1254, Method: SUSPENSION/PLATE", "value": "active; positive"},
      {"measurement": "mutagenic call", "setting": "Test System: UDS RAT HEPATOCYTES, Strain/Indicator: THY INCORP, Metabolic Activation: NONE, Method: AUTORADIOGRAPHY", "value": "inactive; negative"}
    ]},
    {"smiles": "C1CCC2OCCOCCOC3CCCCC3OCCOCCOC2C1", "note": "(configuration not stated)", "values": [
      {"measurement": "mutagenic call", "setting": "[1]", "value": "inactive; negative"},
      {"measurement": "mutagenic call", "setting": "[2]", "value": "inactive; negative"},
      {"measurement": "mutagenic call", "setting": "[3]", "value": "inactive; negative"},
      {"measurement": "mutagenic call", "setting": "[4]", "value": "inactive; negative"},
      {"measurement": "mutagenic call", "setting": "Test System: AMES SALMONELLA TYPHIMURIUM, Strain/Indicator: TA1530, Metabolic Activation: NONE, Method: STANDARD PLATE", "value": "inactive; negative"},
      {"measurement": "mutagenic call", "setting": "Test System: AMES SALMONELLA TYPHIMURIUM, Strain/Indicator: TA1530, Metabolic Activation: RAT, LIVER, S-9, AROCLOR 1254, Method: STANDARD PLATE", "value": "inactive; negative"},
      {"measurement": "mutagenic call", "setting": "[5]", "value": "inactive; negative"},
      {"measurement": "mutagenic call", "setting": "[6]", "value": "inactive; negative"}
    ]}
  ]
}
